According to ChEMBL document CHEMBL4507318, “Data for DCP probe BAY-985” (2021):

How the values were obtained:
[1] = biological target: Inhibitor of nuclear factor kappa-B kinase subunit epsilon (Homo sapiens) (UniProt Q14164)
[2] = biological target: Cyclin-dependent kinase 16 (Homo sapiens) (UniProt Q00536)
[3] = biological target: Cyclin-dependent kinase 18 (Homo sapiens) (UniProt Q07002)
[4] = system: ALK tyrosine kinase receptor (Homo sapiens), Q9UM73 [C1156Y]
[5] = biological target: Mitogen-activated protein kinase kinase kinase 19 (Homo sapiens) (UniProt Q56UN5)
[6] = biological target: Calcium/calmodulin-dependent protein kinase type 1 (Homo sapiens) (UniProt Q14012)
[7] = system: Epidermal growth factor receptor (Homo sapiens), P00533 [UNDEFINED MUTATION]
[8] = biological target: Serine/threonine-protein kinase WNK1 (Homo sapiens) (UniProt Q9H4A3)
[9] = biological target: Calcium-dependent protein kinase 1 (Plasmodium falciparum) (UniProt P62344)
[10] = biological target: Myosin light chain kinase, smooth muscle (Homo sapiens) (UniProt Q15746)
[11] = biological target: Casein kinase II subunit alpha (Homo sapiens) (UniProt P68400)
[12] = biological target: 5-hydroxytryptamine receptor 5A (Homo sapiens) (UniProt P47898); conditions: Compound concentration 10.0 uM
[13] = biological target: 3-phosphoinositide-dependent protein kinase 1 (Homo sapiens) (UniProt O15530)
[14] = biological target: Cyclin-dependent kinase 3 (Homo sapiens) (UniProt Q00526)
[15] = biological target: Muscle, skeletal receptor tyrosine-protein kinase (Homo sapiens) (UniProt O15146)
[16] = organism: Rattus norvegicus; conditions: Compound concentration 10.0 uM
[17] = biological target: Tyrosine-protein kinase HCK (Homo sapiens) (UniProt P08631)
[18] = biological target: Fibroblast growth factor receptor 2 (Homo sapiens) (UniProt P21802)
[19] = biological target: Mitogen-activated protein kinase kinase kinase 12 (Homo sapiens) (UniProt Q12852)
[20] = biological target: Insulin-like growth factor 1 receptor (Homo sapiens) (UniProt P08069)
[21] = biological target: Ephrin type-B receptor 1 (Homo sapiens) (UniProt P54762)
[22] = biological target: Calcium/calmodulin-dependent protein kinase type IV (Homo sapiens) (UniProt Q16566)
[23] = system: Epidermal growth factor receptor (Homo sapiens), P00533 [L858R,T790M]
[24] = biological target: Alpha-2B adrenergic receptor (Homo sapiens) (UniProt P18089); conditions: Compound concentration 10.0 uM
[25] = biological target: Mitogen-activated protein kinase kinase kinase 4 (Homo sapiens) (UniProt Q9Y6R4)
[26] = biological target: BDNF/NT-3 growth factors receptor (Homo sapiens) (UniProt Q16620)
[27] = biological target: NUAK family SNF1-like kinase 1 (Homo sapiens) (UniProt O60285)
[28] = system: Hepatocyte growth factor receptor (Homo sapiens), P08581 [Y1235D]
[29] = biological target: Sigma intracellular receptor 2 (Homo sapiens, UniProt Q5BJF2); conditions: Compound concentration 10.0 uM
[30] = biological target: 5-hydroxytryptamine receptor 1A (Homo sapiens) (UniProt P08908); conditions: Compound concentration 10.0 uM
[31] = biological target: Serine/threonine-protein kinase SBK1 (Homo sapiens) (UniProt Q52WX2)
[32] = biological target: Casein kinase I isoform alpha (Homo sapiens) (UniProt P48729)
[33] = biological target: Mitogen-activated protein kinase kinase kinase 15 (Homo sapiens) (UniProt Q6ZN16)
[34] = biological target: Mitogen-activated protein kinase 9 (Homo sapiens) (UniProt P45984)
[35] = biological target: Macrophage-stimulating protein receptor (Homo sapiens) (UniProt Q04912)
[36] = biological target: Mitogen-activated protein kinase 3 (Homo sapiens) (UniProt P27361)
[37] = biological target: 5-hydroxytryptamine receptor 3A (Homo sapiens) (UniProt P46098); conditions: Compound concentration 10.0 uM
[38] = system: Mast/stem cell growth factor receptor Kit (Homo sapiens), P10721 [V559D]
[39] = biological target: Serine/threonine-protein kinase Sgk3 (Homo sapiens) (UniProt Q96BR1)
[40] = system: Phosphatidylinositol 4,5-bisphosphate 3-kinase catalytic subunit alpha isoform (Homo sapiens), P42336 [M1043I]
[41] = biological target: Tyrosine-protein kinase SYK (Homo sapiens) (UniProt P43405)
[42] = biological target: Cyclin-dependent kinase 19 (Homo sapiens) (UniProt Q9BWU1)
[43] = biological target: RAF proto-oncogene serine/threonine-protein kinase (Homo sapiens) (UniProt P04049)
[44] = biological target: Serine/threonine-protein kinase pim-1 (Homo sapiens) (UniProt P11309)
[45] = system: Epidermal growth factor receptor (Homo sapiens), P00533 [UNDEFINED MUTATION]; remark: listed apart in the source
[46] = biological target: Aurora kinase B (Homo sapiens) (UniProt Q96GD4)
[47] = Compound concentration 1000.0 nM
[48] = Compound concentration 100.0 nM

Mitogen-activated protein kinase 9 (Homo sapiens), sequence (P45984 whole entry, looked up): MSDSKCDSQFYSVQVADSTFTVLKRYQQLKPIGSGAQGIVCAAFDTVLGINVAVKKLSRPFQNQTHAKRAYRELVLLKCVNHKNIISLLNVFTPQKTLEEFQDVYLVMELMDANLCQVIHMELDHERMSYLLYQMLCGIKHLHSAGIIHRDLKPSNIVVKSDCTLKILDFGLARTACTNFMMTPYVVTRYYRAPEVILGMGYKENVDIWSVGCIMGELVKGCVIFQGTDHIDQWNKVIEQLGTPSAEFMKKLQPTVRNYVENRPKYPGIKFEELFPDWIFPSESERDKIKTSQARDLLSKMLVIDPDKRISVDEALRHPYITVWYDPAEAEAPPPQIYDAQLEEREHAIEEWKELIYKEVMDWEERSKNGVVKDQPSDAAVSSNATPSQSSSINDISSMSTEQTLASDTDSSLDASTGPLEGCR
Casein kinase I isoform alpha (Homo sapiens), sequence (P48729 2-337 limits assumed): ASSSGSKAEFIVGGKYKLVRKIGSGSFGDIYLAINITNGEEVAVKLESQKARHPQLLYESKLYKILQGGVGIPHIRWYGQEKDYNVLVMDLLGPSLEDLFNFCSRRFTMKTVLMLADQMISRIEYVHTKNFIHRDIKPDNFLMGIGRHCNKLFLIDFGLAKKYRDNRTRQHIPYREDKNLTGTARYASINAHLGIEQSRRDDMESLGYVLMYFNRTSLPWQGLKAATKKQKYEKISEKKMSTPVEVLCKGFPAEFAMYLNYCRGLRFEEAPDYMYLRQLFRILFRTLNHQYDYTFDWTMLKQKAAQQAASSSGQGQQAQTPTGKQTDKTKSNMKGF
Calcium-dependent protein kinase 1 (Plasmodium falciparum), sequence (P62344 2-524 limits assumed): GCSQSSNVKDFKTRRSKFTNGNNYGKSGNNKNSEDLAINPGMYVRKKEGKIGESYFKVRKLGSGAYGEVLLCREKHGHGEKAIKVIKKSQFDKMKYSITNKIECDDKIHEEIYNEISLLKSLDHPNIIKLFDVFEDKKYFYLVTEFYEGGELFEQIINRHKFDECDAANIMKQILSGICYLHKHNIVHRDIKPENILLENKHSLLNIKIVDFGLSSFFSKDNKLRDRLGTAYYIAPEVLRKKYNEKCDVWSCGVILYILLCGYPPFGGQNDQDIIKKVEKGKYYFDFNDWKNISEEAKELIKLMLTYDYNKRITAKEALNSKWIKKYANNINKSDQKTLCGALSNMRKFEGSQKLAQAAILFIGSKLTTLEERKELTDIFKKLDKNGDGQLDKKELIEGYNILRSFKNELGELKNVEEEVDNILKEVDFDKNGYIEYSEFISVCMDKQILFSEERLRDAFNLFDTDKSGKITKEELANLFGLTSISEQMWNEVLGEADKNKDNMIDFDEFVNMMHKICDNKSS
Cyclin-dependent kinase 16 (Homo sapiens), sequence (Q00536 whole entry): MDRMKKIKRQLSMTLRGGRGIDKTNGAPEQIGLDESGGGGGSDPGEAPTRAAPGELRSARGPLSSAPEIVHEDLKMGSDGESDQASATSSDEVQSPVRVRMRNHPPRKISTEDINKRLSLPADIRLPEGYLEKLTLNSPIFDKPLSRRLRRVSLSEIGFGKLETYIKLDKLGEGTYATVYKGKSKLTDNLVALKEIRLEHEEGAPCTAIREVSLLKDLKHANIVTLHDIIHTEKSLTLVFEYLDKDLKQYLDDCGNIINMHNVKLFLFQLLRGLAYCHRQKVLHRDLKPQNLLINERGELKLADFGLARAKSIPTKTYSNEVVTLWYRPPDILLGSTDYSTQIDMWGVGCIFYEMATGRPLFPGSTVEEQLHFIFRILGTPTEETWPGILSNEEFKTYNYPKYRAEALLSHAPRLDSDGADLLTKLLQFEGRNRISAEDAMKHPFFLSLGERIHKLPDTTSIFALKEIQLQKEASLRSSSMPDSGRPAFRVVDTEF
Aurora kinase B (Homo sapiens), sequence (Q96GD4 whole entry): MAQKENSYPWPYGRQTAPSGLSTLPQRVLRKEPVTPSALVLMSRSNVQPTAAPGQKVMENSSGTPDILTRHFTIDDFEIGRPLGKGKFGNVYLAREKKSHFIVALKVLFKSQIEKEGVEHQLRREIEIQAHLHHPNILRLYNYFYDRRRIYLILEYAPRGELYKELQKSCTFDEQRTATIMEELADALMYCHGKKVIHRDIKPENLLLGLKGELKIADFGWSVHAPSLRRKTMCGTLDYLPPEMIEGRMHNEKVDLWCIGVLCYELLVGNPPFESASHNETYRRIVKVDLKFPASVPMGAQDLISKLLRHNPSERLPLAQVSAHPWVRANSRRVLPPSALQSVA
Cyclin-dependent kinase 18 (Homo sapiens), sequence (Q07002 whole entry): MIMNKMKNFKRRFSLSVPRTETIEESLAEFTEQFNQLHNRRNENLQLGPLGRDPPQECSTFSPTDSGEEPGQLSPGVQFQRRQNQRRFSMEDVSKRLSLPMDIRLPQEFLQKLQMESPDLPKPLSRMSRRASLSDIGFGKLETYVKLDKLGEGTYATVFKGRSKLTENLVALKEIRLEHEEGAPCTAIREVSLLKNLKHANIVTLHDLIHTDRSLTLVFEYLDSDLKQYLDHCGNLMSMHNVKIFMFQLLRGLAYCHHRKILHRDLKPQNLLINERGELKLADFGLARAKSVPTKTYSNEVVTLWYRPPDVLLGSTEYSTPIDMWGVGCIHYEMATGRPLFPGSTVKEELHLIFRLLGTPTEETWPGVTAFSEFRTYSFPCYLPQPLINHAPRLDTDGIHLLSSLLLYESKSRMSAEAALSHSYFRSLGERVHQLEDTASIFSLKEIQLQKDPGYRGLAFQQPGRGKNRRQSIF
Muscle, skeletal receptor tyrosine-protein kinase (Homo sapiens), sequence (O15146 whole entry): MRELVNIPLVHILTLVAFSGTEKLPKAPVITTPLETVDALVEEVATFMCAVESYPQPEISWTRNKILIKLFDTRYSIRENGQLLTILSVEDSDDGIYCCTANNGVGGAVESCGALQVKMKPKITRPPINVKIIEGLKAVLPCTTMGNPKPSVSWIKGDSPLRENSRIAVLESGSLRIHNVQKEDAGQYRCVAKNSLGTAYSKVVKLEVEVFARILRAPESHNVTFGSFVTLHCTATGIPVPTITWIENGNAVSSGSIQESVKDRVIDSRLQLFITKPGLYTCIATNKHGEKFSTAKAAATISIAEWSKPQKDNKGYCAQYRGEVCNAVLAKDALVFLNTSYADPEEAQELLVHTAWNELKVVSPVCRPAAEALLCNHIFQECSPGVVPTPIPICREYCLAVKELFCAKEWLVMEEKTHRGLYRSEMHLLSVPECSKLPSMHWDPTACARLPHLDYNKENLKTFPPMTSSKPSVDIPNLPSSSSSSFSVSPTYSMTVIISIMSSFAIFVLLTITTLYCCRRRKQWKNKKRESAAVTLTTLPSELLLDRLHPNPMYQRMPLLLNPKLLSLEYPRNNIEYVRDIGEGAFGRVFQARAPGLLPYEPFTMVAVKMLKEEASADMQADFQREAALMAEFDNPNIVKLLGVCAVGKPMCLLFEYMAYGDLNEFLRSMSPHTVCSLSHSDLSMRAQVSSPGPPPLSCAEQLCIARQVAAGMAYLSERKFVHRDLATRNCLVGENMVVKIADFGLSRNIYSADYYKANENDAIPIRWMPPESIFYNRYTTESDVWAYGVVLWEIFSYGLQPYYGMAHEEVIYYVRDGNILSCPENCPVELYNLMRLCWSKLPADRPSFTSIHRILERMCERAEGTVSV
5-hydroxytryptamine receptor 3A (Homo sapiens), sequence (P46098 whole entry): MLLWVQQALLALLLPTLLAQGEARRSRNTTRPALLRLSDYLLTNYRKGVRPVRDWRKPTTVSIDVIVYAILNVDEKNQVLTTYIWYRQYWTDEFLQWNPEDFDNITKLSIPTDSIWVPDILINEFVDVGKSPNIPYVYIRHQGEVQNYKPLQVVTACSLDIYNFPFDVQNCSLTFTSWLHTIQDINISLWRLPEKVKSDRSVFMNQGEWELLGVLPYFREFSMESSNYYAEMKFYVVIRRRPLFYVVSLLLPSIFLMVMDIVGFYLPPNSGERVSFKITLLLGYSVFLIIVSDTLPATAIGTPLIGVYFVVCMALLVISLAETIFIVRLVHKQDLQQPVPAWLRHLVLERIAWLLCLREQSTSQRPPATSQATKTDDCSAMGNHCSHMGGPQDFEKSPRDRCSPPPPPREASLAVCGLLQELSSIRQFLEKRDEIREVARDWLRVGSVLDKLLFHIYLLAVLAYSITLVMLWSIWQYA
Cyclin-dependent kinase 3 (Homo sapiens), sequence (Q00526 whole entry, looked up): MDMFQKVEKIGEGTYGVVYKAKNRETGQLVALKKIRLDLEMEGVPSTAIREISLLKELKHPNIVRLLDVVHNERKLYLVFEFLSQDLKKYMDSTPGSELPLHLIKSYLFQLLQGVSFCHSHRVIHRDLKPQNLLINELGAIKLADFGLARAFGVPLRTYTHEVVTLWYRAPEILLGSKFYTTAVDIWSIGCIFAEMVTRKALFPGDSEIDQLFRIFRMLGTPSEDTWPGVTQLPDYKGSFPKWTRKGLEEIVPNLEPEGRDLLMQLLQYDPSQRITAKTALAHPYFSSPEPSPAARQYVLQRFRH
Cyclin-dependent kinase 19 (Homo sapiens), sequence (Q9BWU1 whole entry): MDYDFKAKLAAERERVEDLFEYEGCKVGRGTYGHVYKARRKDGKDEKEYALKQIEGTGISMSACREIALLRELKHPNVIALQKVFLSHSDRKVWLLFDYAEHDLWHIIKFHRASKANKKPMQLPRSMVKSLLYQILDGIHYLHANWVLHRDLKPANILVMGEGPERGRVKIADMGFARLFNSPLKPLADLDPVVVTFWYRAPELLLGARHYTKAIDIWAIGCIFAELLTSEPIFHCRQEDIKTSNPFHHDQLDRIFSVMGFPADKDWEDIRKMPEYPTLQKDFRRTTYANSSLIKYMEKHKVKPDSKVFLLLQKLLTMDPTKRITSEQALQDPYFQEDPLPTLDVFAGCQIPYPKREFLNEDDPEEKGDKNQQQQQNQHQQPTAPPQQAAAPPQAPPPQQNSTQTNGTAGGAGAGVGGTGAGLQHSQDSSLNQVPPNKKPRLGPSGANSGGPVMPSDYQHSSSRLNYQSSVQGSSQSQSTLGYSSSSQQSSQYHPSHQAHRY
Sigma intracellular receptor 2, sequence (Q5BJF2 whole entry): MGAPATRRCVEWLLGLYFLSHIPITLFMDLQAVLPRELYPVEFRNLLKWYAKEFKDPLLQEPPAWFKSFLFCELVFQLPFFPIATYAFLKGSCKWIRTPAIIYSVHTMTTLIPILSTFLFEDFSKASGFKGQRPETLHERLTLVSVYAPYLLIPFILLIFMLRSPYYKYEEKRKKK

CN(C)c1ncnc(-c2ccc3nc(Nc4cc(CN5CCN(C(=O)CC(F)(F)F)CC5)ccn4)[nH]c3c2)c1Cl [BAY-440]
residual activity [1, 47]: 13% | residual activity [2, 47]: 74% | residual activity [3, 47]: 100% | residual activity [4, 47]: 59% | residual activity [5, 47]: 15% | residual activity [6, 47]: 100% | residual activity [7, 47]: 100% | residual activity [8, 47]: 86% | residual activity [9, 47]: 100% | residual activity [10, 47]: 68% | residual activity [11, 47]: 80% | inhibition [12]: 23.6% | residual activity [13, 47]: 100% | residual activity [14, 47]: 86% | residual activity [15, 47]: 100% | inhibition [16]: 13.9% | residual activity [17, 47]: 80% | residual activity [18, 47]: 100% | residual activity [19, 47]: 64% | residual activity [20, 47]: 100% | residual activity [21, 47]: 97% | residual activity [22, 47]: 89% | residual activity [23, 47]: 82% | inhibition [24]: -2.22% | residual activity [25, 47]: 100% | residual activity [26, 47]: 63% | residual activity [27, 47]: 100% | residual activity [28, 47]: 68% | inhibition [29]: 68.1% | inhibition [30]: 13.9% | residual activity [31, 47]: 71% | residual activity [32, 47]: 89% | residual activity [33, 47]: 75% | residual activity [34, 47]: 47% | residual activity [35, 47]: 98% | residual activity [36, 47]: 100% | inhibition [37]: 35.6% | residual activity [38, 47]: 75% | residual activity [39, 47]: 72% | residual activity [40, 47]: 56% | residual activity [41, 47]: 96% | residual activity [42, 47]: 75% | residual activity [43, 47]: 100% | residual activity [44, 47]: 100% | residual activity [45, 47]: 100% | residual activity [46, 47]: 85%

C[C@H](c1ccnc(Nc2nc3ccc(-c4cc(N(C)C)ncn4)cc3[nH]2)c1)N1CCN(C(=O)CC(F)(F)F)CC1 [BAY-985]
residual activity [1, 48]: 9.9% | residual activity [2, 48]: 100% | residual activity [3, 48]: 89% | residual activity [4, 48]: 100% | residual activity [5, 48]: 10% | residual activity [6, 48]: 88% | residual activity [7, 48]: 69% | residual activity [8, 48]: 100% | residual activity [9, 48]: 100% | residual activity [10, 48]: 100% | residual activity [11, 48]: 100% | inhibition [12]: 11.9% | residual activity [13, 48]: 76% | residual activity [14, 48]: 100% | residual activity [15, 48]: 97% | inhibition [16]: -2.73% | residual activity [17, 48]: 91% | residual activity [18, 48]: 100% | residual activity [19, 48]: 100% | residual activity [20, 48]: 98% | residual activity [21, 48]: 98% | residual activity [22, 48]: 100% | residual activity [23, 48]: 100% | inhibition [24]: 24.7% | residual activity [25, 48]: 96% | residual activity [26, 48]: 100% | residual activity [27, 48]: 93% | residual activity [28, 48]: 100% | inhibition [29]: 54.1% | inhibition [30]: 6.47% | residual activity [31, 48]: 85% | residual activity [32, 48]: 100% | residual activity [33, 48]: 96% | residual activity [34, 48]: 89% | residual activity [35, 48]: 80% | residual activity [36, 48]: 89% | inhibition [37]: 31.9% | residual activity [38, 48]: 99% | residual activity [39, 48]: 100% | residual activity [40, 48]: 84% | residual activity [41, 48]: 31% | residual activity [42, 48]: 93% | residual activity [43, 48]: 97% | residual activity [44, 48]: 79% | residual activity [45, 48]: 89% | residual activity [46, 48]: 100%
